The source made the active and inactive calls. The rule behind the calls is not given here.
Experiments:
[1] = target: PI3-kinase p110-alpha/p85-alpha (Homo sapiens, UniProt P42336); experiment: Inhibition of recombinant human N-terminal FLAG-tagged full-length p110alpha/human p85alpha expressed in Sf9 insect cells using PIP2 as substrate by kinase-glo assay
[2] = Antifibrotic activity against mouse Mlg2908 cells assessed as reduction in cell viability measured after 72 hrs by MTT assay; format: functional, cell-based
[3] = Apparent permeability across apical to basolateral side in human Caco2 cells measured after 90 mins by LC-MS/MS analysis; settings: Caco-2
[4] = Apparent permeability across basolateral to apical side in human Caco2 cells measured after 90 mins by LC-MS/MS analysis; settings: Caco-2
Mus musculus [5] = species on record: Mus musculus; experiment: Inhibition of class 1 PI3K in mouse Mlg2908 cells assessed as reduction in AKT phosphorylation at T308 residue measured after 3 hrs by Western blot analysis; format: cell-based
[6] = Half life in ICR mouse at 5 mg/kg, po by LC-MS/SM analysis; format: ADME, organism-based; settings: in vivo
[7] = Oral bioavailability in ICR mouse at 5 mg/kg by LC-MS/SM analysis; format: ADME, organism-based; settings: in vivo
[8] = Volume of distribution at steady state in ICR mouse at 0.5 mg/kg, iv by LC-MS/SM analysis; format: ADME, organism-based; settings: in vivo, read-out: Vdss
[9] = target: Phosphatidylinositol 4,5-bisphosphate 3-kinase catalytic subunit gamma isoform (Homo sapiens, UniProt P48736); experiment: Inhibition of recombinant human N-terminal His-tagged full-length p120gamma expressed in Sf9 insect cells using PIP2 as substrate by ADP-glo assay
Chain of Phosphatidylinositol 4,5-bisphosphate 3-kinase catalytic subunit gamma isoform (P48736 whole entry, canonical isoform): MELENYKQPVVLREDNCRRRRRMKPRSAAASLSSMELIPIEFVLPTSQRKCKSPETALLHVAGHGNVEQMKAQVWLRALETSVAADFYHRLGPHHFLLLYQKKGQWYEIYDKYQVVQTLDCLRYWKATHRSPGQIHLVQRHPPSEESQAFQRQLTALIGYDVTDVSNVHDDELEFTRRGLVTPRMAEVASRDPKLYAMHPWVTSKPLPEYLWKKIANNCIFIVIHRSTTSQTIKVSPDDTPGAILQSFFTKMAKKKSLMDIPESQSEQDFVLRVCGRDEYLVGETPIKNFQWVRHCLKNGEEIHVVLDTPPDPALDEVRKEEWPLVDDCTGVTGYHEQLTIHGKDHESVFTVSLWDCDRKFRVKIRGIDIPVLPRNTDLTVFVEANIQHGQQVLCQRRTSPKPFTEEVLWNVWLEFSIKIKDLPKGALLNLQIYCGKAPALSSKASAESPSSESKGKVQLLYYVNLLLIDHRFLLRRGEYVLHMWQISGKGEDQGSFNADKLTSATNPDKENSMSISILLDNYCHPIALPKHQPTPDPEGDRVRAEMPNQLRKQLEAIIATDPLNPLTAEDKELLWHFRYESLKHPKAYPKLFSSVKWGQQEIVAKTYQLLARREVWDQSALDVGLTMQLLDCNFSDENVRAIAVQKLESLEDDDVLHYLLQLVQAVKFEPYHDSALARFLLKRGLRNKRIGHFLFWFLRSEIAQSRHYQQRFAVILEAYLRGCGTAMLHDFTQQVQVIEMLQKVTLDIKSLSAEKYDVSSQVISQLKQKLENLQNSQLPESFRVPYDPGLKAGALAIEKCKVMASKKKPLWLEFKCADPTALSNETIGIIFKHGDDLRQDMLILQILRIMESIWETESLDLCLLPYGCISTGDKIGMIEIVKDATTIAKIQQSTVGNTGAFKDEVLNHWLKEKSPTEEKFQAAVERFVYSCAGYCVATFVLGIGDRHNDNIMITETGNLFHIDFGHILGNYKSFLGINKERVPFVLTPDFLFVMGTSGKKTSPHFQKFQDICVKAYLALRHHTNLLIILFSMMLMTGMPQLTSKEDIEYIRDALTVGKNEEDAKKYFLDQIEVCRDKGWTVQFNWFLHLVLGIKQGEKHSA

Mus musculus [10] = species on record: Mus musculus; experiment: Inhibition of class 1 PI3K in mouse Mlg2908 cells assessed as reduction in S6RP phosphorylation measured after 3 hrs by Western blot analysis; format: cell-based
[11] = AUC (0 to infinity) in ICR mouse at 0.5 mg/kg, iv by LC-MS/SM analysis; format: ADME, organism-based; design: dose 0.5 mg/kg, time infinity, route intravenous; settings: in vivo
[12] = AUC (0 to infinity) in ICR mouse at 5 mg/kg, po by LC-MS/SM analysis; format: ADME, organism-based; design: dose 5 mg/kg, route oral, time infinity; settings: in vivo
Mus musculus [13] = species on record: Mus musculus; experiment: Inhibition of class 1 PI3K in mouse Mlg2908 cells assessed as reduction in p70S6K phosphorylation measured after 3 hrs by Western blot analysis; format: cell-based
[14] = Cmax in ICR mouse at 5 mg/kg, po by LC-MS/SM analysis; format: ADME, organism-based; design: dose 5 mg/kg, route oral; settings: in vivo
Mus musculus [15] = species on record: Mus musculus; experiment: Inhibition of class 1 PI3K in mouse Mlg2908 cells assessed as reduction in AKT phosphorylation at S473 residue measured after 3 hrs by Western blot analysis; format: cell-based
[16] = Half life in ICR mouse at 0.5 mg/kg, iv by LC-MS/SM analysis; format: ADME, organism-based; settings: in vivo
[17] = Clearance in ICR mouse at 0.5 mg/kg, iv by LC-MS/SM analysis; format: ADME, organism-based; settings: in vivo
PI3K p110 beta/p85 alpha = PI3K p110 beta/p85 alpha (Homo sapiens, UniProt P42338); experiment: Inhibition of recombinant human N-terminal FLAG-tagged full-length p110beta/human p85alpha expressed in Sf9 insect cells using PIP2 as substrate by ADP-glo assay
Chain of PI3K p110 beta/p85 alpha (P27986 whole entry): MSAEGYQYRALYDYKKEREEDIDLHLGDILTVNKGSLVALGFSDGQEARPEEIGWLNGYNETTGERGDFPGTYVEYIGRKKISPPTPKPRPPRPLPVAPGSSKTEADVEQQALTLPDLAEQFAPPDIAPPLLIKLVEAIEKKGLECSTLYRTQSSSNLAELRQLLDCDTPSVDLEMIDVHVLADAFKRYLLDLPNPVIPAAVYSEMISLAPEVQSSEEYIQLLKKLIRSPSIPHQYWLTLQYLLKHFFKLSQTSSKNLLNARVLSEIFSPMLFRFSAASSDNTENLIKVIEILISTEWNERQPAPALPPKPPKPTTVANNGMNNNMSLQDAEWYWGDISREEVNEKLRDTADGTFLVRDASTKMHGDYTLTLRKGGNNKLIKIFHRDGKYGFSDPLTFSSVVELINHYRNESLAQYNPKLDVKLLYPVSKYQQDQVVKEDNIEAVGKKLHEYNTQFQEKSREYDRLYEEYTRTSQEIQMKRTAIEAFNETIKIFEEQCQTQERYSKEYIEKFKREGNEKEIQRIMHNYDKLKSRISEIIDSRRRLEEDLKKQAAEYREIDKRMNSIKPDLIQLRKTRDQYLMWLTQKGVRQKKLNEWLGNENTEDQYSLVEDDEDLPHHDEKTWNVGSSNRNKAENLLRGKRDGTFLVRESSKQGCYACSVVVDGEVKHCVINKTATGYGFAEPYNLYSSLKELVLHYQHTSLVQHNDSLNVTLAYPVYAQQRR
Chain of PI3K p110 beta/p85 alpha (P42338 whole entry): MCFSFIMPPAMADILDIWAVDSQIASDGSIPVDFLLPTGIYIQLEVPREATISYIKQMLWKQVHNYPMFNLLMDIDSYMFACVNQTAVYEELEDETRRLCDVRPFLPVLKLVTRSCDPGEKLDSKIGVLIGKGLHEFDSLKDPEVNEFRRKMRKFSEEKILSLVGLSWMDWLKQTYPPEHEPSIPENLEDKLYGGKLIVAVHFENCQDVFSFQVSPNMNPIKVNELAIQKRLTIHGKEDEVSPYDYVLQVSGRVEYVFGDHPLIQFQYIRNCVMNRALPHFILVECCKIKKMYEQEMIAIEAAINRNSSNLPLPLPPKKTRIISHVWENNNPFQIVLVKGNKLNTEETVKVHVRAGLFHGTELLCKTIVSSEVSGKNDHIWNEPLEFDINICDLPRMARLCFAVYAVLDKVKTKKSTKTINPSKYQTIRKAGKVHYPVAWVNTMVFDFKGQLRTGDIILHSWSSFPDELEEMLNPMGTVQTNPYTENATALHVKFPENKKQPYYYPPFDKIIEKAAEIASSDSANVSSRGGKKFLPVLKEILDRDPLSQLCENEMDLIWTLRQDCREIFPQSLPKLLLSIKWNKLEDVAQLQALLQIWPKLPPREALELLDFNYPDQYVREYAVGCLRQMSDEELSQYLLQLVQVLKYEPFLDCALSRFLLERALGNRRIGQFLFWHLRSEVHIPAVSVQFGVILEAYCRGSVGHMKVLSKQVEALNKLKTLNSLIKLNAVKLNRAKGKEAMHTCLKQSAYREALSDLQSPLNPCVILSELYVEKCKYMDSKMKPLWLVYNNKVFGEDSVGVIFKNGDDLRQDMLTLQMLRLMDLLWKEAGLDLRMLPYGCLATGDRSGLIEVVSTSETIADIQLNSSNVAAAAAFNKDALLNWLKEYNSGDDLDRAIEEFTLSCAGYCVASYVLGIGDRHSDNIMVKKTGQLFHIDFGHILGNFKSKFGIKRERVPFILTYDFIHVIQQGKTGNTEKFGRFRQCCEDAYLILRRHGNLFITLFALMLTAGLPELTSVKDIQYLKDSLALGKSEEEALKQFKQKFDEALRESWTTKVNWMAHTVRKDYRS

[18] = target: PI3-kinase p110-delta/p85-alpha (Homo sapiens, UniProt O00329); experiment: Inhibition of recombinant human N-terminal GST-tagged full-length p110delta/human p85alpha expressed in Sf9 insect cells using PIP2 as substrate by ADP-glo assay
Chain of PI3-kinase p110-delta/p85-alpha (P27986 whole entry): as the sequence (P27986 whole entry) above
Chain of PI3-kinase p110-delta/p85-alpha (O00329 whole entry): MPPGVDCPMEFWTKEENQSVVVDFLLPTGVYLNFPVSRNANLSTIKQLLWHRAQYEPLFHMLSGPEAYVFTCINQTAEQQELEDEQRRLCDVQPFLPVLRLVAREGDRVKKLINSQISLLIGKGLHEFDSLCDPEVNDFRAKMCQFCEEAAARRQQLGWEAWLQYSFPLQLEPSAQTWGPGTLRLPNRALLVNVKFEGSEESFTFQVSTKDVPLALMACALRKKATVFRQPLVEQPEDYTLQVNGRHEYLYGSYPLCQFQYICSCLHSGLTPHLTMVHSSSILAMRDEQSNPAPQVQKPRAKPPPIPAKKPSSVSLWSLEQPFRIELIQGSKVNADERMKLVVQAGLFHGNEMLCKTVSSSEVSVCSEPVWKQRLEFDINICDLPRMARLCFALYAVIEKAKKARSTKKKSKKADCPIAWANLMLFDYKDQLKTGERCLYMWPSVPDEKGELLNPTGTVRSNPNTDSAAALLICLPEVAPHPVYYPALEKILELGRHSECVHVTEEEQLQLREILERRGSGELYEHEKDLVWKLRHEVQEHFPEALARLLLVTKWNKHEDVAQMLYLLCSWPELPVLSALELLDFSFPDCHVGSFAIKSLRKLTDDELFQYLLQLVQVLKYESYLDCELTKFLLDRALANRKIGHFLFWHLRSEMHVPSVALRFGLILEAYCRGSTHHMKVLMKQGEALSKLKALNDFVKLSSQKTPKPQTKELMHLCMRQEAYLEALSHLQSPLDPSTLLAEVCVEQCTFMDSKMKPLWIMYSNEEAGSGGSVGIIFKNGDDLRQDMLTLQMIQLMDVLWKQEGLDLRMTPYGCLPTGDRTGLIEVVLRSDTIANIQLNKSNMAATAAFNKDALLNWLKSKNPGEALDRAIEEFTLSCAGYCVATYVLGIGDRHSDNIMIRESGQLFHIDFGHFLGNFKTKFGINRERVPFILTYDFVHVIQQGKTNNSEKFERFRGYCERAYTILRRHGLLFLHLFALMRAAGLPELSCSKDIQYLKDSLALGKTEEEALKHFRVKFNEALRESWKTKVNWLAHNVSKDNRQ

Mus musculus [19] = experiment: (§1) Antifibrotic activity in bleomycin-induced C57BL/6 mouse model of pulmonary fibrosis assessed as reduction in lung hydroxyproline level at 30 mg/kg, po administered thrice daily for 18 days starting from 10 days post-bleomycin challenge and measured post last dose; format: functional, organism-based
Mus musculus [20] = experiment: as §1, with “alpha-SMA” for “hydroxyproline”, “dose by immunostaining-based histopathological analysis” for “dose”; format: functional, organism-based
Mus musculus [21] = experiment: as §1, with “collagen fiber deposition” for “lung hydroxyproline level”, “dose by Masson staining-based histopathological analysis” for “dose”; format: functional, organism-based
Mus musculus [22] = experiment: Antifibrotic activity in bleomycin-induced C57BL/6 mouse model of pulmonary fibrosis assessed as reduction in respiratory system resistance at 30 mg/kg, po administered thrice daily for 18 days starting from 10 days post-bleomycin challenge and measured post last dose; format: functional, organism-based
Mus musculus [23] = experiment: Antifibrotic activity in bleomycin-induced C57BL/6 mouse model of pulmonary fibrosis assessed as reduction in inspiratory capacity at 30 mg/kg, po administered thrice daily for 18 days starting from 10 days post-bleomycin challenge and measured post last dose; format: functional, organism-based
Mus musculus [24] = experiment: Antifibrotic activity in bleomycin-induced C57BL/6 mouse model of pulmonary fibrosis assessed as reduction in lung fibronectin level at 30 mg/kg, po administered thrice daily for 18 days starting from 10 days post-bleomycin challenge and measured post last dose by Western blot analysis; format: functional, organism-based
Mus musculus [25] = experiment: Antifibrotic activity in bleomycin-induced C57BL/6 mouse model of pulmonary fibrosis assessed as reduction in respiratory system compliance at 30 mg/kg, po administered thrice daily for 18 days starting from 10 days post-bleomycin challenge and measured post last dose; format: functional, organism-based
Mus musculus [26] = experiment: Antifibrotic activity in bleomycin-induced C57BL/6 mouse model of pulmonary fibrosis assessed as reduction in respiratory system elastance at 30 mg/kg, po administered thrice daily for 18 days starting from 10 days post-bleomycin challenge and measured post last dose; format: functional, organism-based
Mus musculus [27] = experiment: (§2) Antifibrotic activity in bleomycin-induced C57BL/6 mouse model of pulmonary fibrosis assessed as reduction in lung index at 30 mg/kg, po administered thrice daily for 18 days starting from 10 days post-bleomycin challenge and measured post last dose; format: functional, organism-based
Mus musculus [28] = experiment: as §2, with “damage” for “index”, “dose by H and E staining-based histopathological analysis” for “dose”; format: functional, organism-based
[29] = simulated gi fluid, pH 6.5, 1 h
Description: Thermodynamic solubility of the compound in pH 6.5 FaSSIF incubated for 1 hr by LC-MS/MS analysis

[30] = Kinetic solubility of the compound in pH 7.4 incubated for 120 mins by HPLC-MS/MS analysis; settings: buffer, pH 7.4, 2 h
[31] = buffer, pH 7.4, 1 h
Description: Thermodynamic solubility of the compound in pH 7.4 PBS incubated for 1 hr by LC-MS/MS analysis

Chain of PI3-kinase p110-alpha/p85-alpha (P27986 whole entry): as the sequence (P27986 whole entry) above
Chain of PI3-kinase p110-alpha/p85-alpha (P42336 whole entry): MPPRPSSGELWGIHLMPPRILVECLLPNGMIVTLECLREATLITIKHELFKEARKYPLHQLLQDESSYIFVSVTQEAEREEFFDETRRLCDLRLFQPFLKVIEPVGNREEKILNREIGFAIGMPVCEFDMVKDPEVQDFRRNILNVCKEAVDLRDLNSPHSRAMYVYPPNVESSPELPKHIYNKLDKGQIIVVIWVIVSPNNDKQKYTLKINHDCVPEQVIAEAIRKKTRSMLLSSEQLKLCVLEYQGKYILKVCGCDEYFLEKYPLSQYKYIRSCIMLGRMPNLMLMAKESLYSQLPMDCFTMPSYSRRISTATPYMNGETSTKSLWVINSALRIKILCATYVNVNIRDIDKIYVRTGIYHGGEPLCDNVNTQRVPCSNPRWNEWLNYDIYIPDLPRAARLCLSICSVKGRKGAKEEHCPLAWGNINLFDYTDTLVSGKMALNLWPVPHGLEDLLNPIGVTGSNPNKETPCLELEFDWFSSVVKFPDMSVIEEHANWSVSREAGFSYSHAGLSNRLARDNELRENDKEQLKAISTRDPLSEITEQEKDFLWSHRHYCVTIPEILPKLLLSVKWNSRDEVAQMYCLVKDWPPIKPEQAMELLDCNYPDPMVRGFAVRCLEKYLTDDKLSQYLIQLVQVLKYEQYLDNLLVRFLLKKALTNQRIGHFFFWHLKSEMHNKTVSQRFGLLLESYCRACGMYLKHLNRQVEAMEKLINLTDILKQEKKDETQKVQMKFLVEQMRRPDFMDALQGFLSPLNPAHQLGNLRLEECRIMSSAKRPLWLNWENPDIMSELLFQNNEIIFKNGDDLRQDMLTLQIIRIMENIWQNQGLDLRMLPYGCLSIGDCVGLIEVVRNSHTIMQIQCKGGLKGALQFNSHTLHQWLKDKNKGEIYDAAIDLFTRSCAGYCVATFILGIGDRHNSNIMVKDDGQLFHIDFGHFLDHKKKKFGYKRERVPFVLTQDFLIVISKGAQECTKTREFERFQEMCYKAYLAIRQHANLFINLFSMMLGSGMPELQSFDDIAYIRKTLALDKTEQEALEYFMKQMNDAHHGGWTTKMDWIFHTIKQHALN

IC50 [1] | Papp A→B at 1.5 h [3] | Papp B→A at 1.5 h [4] | SMILES | IC50 [2] | other results
0.89 nM | 31 ×10⁻⁶ cm/s | 22 ×10⁻⁶ cm/s | COc1ncc(-c2cc(OC3CCOC(C)(C)C3)c3ncnc(C)c3c2)cc1NS(=O)(=O)c1ccc(F)cc1F (configuration not stated) | 2 nM | –
1.6 nM | 8.8 ×10⁻⁶ cm/s | 38 ×10⁻⁶ cm/s | COc1ncc(-c2cc(OCC3CCN(C)CC3)c3ncnc(C)c3c2)cc1NS(=O)(=O)c1ccc(F)cc1F | 81 nM | –
– | – | – | Cc1nc(NC(=O)N2CCC[C@H]2C(N)=O)sc1-c1ccnc(C(C)(C)C(F)(F)F)c1 [ALPELISIB] | 3500 nM | –
31 nM | 39 ×10⁻⁶ cm/s | 31 ×10⁻⁶ cm/s | COc1ccc(-c2cc(OC3CCOCC3)c3ncnc(C)c3c2)cn1 | 17000 nM | –
– | – | – | COc1ncc(-c2ccc3nccc(-c4ccnnc4)c3c2)cc1NS(=O)(=O)c1ccc(F)cc1F [OMIPALISIB] | 4 nM | –
1.5 nM | 16 ×10⁻⁶ cm/s | 21 ×10⁻⁶ cm/s | COc1ncc(-c2cc(OC3CCCCC3)c3ncnc(C)c3c2)cc1NS(=O)(=O)c1ccc(F)cc1F | 33 nM | –
0.95 nM | 34 ×10⁻⁶ cm/s | 39 ×10⁻⁶ cm/s | COc1ncc(-c2cc(OCC3CCOC3)c3ncnc(C)c3c2)cc1NS(=O)(=O)c1ccc(F)cc1F (configuration not stated) | 4 nM | –
– | – | – | CC[C@H](Nc1ncnc2[nH]cnc12)c1nc2cccc(F)c2c(=O)n1-c1ccccc1 [IDELALISIB] | > 20000 nM | –
– | – | – | Cc1c(Cn2c(C)nc3c(C(=O)O)cc(N4CCOCC4)cc32)cccc1C(F)(F)F [GSK-2636771] | > 20000 nM | –
2 nM | 32 ×10⁻⁶ cm/s | 22 ×10⁻⁶ cm/s | COc1ncc(-c2cc(OC(C)C)c3ncnc(C)c3c2)cc1NS(=O)(=O)c1ccc(F)cc1F | 13 nM | –
2.3 nM | 13 ×10⁻⁶ cm/s | 33 ×10⁻⁶ cm/s | COc1ncc(-c2cc(OCCN3CCOCC3)c3ncnc(C)c3c2)cc1NS(=O)(=O)c1ccc(F)cc1F | 210 nM | –
2.1 nM | 4.5 ×10⁻⁶ cm/s | 46 ×10⁻⁶ cm/s | COc1ncc(-c2cc(OC3CCN(C)CC3)c3ncnc(C)c3c2)cc1NS(=O)(=O)c1ccc(F)cc1F | 230 nM | –
1 nM | 44 ×10⁻⁶ cm/s | 30 ×10⁻⁶ cm/s | COc1ncc(-c2cc(OC3CCC3)c3ncnc(C)c3c2)cc1NS(=O)(=O)c1ccc(F)cc1F | 3 nM | –
6.8 nM | 7.5 ×10⁻⁶ cm/s | 38 ×10⁻⁶ cm/s | COc1ncc(-c2cc(OCCN3CCCC3)c3ncnc(C)c3c2)cc1NS(=O)(=O)c1ccc(F)cc1F | 1300 nM | –
1.7 nM | 34 ×10⁻⁶ cm/s | 17 ×10⁻⁶ cm/s | COc1ncc(-c2cc(OC(F)F)c3ncnc(C)c3c2)cc1NS(=O)(=O)c1ccc(F)cc1F | 130 nM | –
1.2 nM | 35 ×10⁻⁶ cm/s | 31 ×10⁻⁶ cm/s | COc1ncc(-c2cc(OC)c3ncnc(C)c3c2)cc1NS(=O)(=O)c1ccc(F)cc1F | 130 nM | –
– | – | – | COc1ncc(-c2cc(OC3CCOCC3)c3nc(N)nc(C)c3c2)cc1NS(=O)(=O)c1ccc(F)cc1F | 140 nM | –
1.5 nM | 30 ×10⁻⁶ cm/s | 23 ×10⁻⁶ cm/s | COc1ncc(-c2cc(OCC3CC3)c3ncnc(C)c3c2)cc1NS(=O)(=O)c1ccc(F)cc1F | 20 nM | –
1 nM | 28 ×10⁻⁶ cm/s | 17 ×10⁻⁶ cm/s | COc1ncc(-c2cc(OC3CCCC3)c3ncnc(C)c3c2)cc1NS(=O)(=O)c1ccc(F)cc1F | 15 nM | –
0.92 nM | 31 ×10⁻⁶ cm/s | 33 ×10⁻⁶ cm/s | COc1ncc(-c2cc(OCC3CCOCC3)c3ncnc(C)c3c2)cc1NS(=O)(=O)c1ccc(F)cc1F | 8 nM | –
– | – | – | C[C@H](NC(=O)c1c(N)nn2cccnc12)c1cc2cccc(C#Cc3cnn(C)c3)c2c(=O)n1-c1ccccc1 [EGANELISIB] | 980 nM | –
– | – | – | Cc1ccc(=O)n(-c2ccccc2)c1 | – | Activity (Mus musculus [19]): Active; Activity (Mus musculus [20]): Active; Activity (Mus musculus [21]): Active; Activity (Mus musculus [22]): Active; Activity (Mus musculus [23]): Active; Activity (Mus musculus [24]): Active; Activity (Mus musculus [25]): Active; Activity (Mus musculus [26]): Active; Activity (Mus musculus [27]): Active; Activity (Mus musculus [28]): Active
– | – | – | C[C@H](Nc1ncnc2nc[nH]c12)c1cc2cccc(Cl)c2c(=O)n1-c1ccccc1 [DUVELISIB] | 6900 nM | –
5.3 nM | 10 ×10⁻⁶ cm/s | 51 ×10⁻⁶ cm/s | COc1ncc(-c2cc(OCCN(C)C)c3ncnc(C)c3c2)cc1NS(=O)(=O)c1ccc(F)cc1F | 460 nM | –

SMILES | IC50 [1] | Papp A→B at 1.5 h [3] | Papp B→A at 1.5 h [4] | IC50 [2] | other results
COc1ncc(-c2cc(O[C@@H]3CCOC3)c3ncnc(C)c3c2)cc1NS(=O)(=O)c1ccc(F)cc1F | 0.88 nM | 38 ×10⁻⁶ cm/s | 37 ×10⁻⁶ cm/s | 10 nM | inhibition (Mus musculus [5]): Dose-dependent effect; half-life [6]: 4.08 h; bioavailability [7]: 58.7%; Vd [8]: 0.5 L/kg; IC50 [9]: 1.5 nM; inhibition (Mus musculus [10]): Dose-dependent effect; AUC(0-inf) [11]: 520 ng·h/mL; AUC(0-inf) [12]: 3170 ng·h/mL; inhibition (Mus musculus [13]): Dose-dependent effect; Cmax [14]: 1440 ng/mL; inhibition (Mus musculus [15]): Dose-dependent effect; half-life [16]: 0.36 h; clearance [17]: 16 mL/min/kg; IC50 (PI3K p110 beta/p85 alpha): 0.34 nM; IC50 [18]: 0.35 nM
COc1ncc(-c2cc(OC3CCOCC3)c3ncnc(C)c3c2)cc1NS(=O)(=O)c1ccc(F)cc1F | 0.6 nM | 42 ×10⁻⁶ cm/s | 39 ×10⁻⁶ cm/s | 3 nM | inhibition (Mus musculus [5]): Dose-dependent effect; half-life [6]: 5.57 h; bioavailability [7]: 15.8%; Vd [8]: 0.368 L/kg; IC50 [9]: 2.1 nM; inhibition (Mus musculus [10]): Dose-dependent effect; AUC(0-inf) [11]: 1820 ng·h/mL; AUC(0-inf) [12]: 3240 ng·h/mL; inhibition (Mus musculus [13]): Dose-dependent effect; Cmax [14]: 1210 ng/mL; inhibition (Mus musculus [15]): Dose-dependent effect; half-life [16]: 0.92 h; Therm_solubility [29]: Soluble; clearance [17]: 4.58 mL/min/kg; IC50 (PI3K p110 beta/p85 alpha): 0.54 nM; IC50 [18]: 0.52 nM; Kinetic_solubility [30]: Soluble; Therm_solubility [31]: Soluble

Reference: ChEMBL document CHEMBL4321792, “Discovery of 4-Methylquinazoline Based PI3K Inhibitors for the Potential Treatment of Idiopathic Pulmonary Fibrosis” (J Med Chem, 2019)
